Laboratory results published in US20260216116A1, “QUATERNARY AMMONIUM COMPOUNDS (QACS) AND PROCESS FOR PREPARATION THEREOF” (priority 2023, published 2026).

Assay: Dissociation of 1 carboxy N—N—N trimethylmethanaminium benzoate in buffer solutions
Assay type: physicochemical
Description: Sample Preparation: 750 mg sample was dissolved in 250 mL of respective buffer solution and kept in orbital shaker at 37° C. for 30 minutes, 1 hour and 2 hours in separate flask. […]

[1] = pH 1.2 (0.1N HCl), 1 Hours, 37° C.
[2] = pH 1.2 (0.1N HCl), 2 Hours, 37° C.
[3] = pH 1.2 (0.1N HCl), 30 Minutes, 37° C.
[4] = pH 1.2 (0.1N HCl), Initial, 750 mg in 250 mL, 37° C.
[5] = pH 6.8 (Phosphate Buffer), 1 Hours, 37° C.
[6] = pH 6.8 (Phosphate Buffer), 2 Hours, 37° C.
[7] = pH 6.8 (Phosphate Buffer), 30 Minutes, 37° C.
[8] = pH 6.8 (Phosphate Buffer), Initial
[9] = pH 6.8 (Phosphate Buffer), Initial, 750 mg in 250 mL, 37° C.

## C[N+](C)(C)CC(=O)O.O=C([O-])c1ccccc1 [1-carboxy-N—N—N-trimethylmethanaminium benzoate]
1.2 pH
  Dissociation: completely dissociated
6.8 pH
  Dissociation: completely dissociated
Control
  Concentration in %: 1 carboxy N-N-N trimethylmethanaminium, %: 70%
  Concentration in %: Benzoic acid, %: 36%
[1]
  %, Dissociation of 1 carboxy N-N-N trimethylmethanaminium: 100%
  %, Dissociation of Benzoic acid: 115%
  Concentration in %: 1 carboxy N-N-N trimethylmethanaminium, %: 69%
  Concentration in %: Benzoic acid, %: 41%
[2]
  %, Dissociation of 1 carboxy N-N-N trimethylmethanaminium: 100%
  %, Dissociation of Benzoic acid: 114%
  Concentration in %: 1 carboxy N-N-N trimethylmethanaminium, %: 70%
  Concentration in %: Benzoic acid, %: 41%
[3]
  %, Dissociation of 1 carboxy N-N-N trimethylmethanaminium: 98%
  %, Dissociation of Benzoic acid: 115%
  Concentration in %: 1 carboxy N-N-N trimethylmethanaminium, %: 68%
  Concentration in %: Benzoic acid, %: 41%
pH 1.2 (0.1N HCl), Initial
  %, Dissociation of 1 carboxy N-N-N trimethylmethanaminium: 97%
  %, Dissociation of Benzoic acid: 94%
[4]
  Concentration in %: 1 carboxy N-N-N trimethylmethanaminium, %: 67%
  Concentration in %: Benzoic acid, %: 34%
[5]
  %, Dissociation of 1 carboxy N-N-N trimethylmethanaminium: 97%
  %, Dissociation of Benzoic acid: 109%
  Concentration in %: 1 carboxy N-N-N trimethylmethanaminium, %: 70%
  Concentration in %: Benzoic acid, %: 40%
[6]
  %, Dissociation of 1 carboxy N-N-N trimethylmethanaminium: 99%
  %, Dissociation of Benzoic acid: 108%
  Concentration in %: 1 carboxy N-N-N trimethylmethanaminium, %: 71%
  Concentration in %: Benzoic acid, %: 40%
[7]
  %, Dissociation of 1 carboxy N-N-N trimethylmethanaminium: 98%
  %, Dissociation of Benzoic acid: 109%
  Concentration in %: 1 carboxy N-N-N trimethylmethanaminium, %: 71%
  Concentration in %: Benzoic acid, %: 40%
[8]
  %, Dissociation of 1 carboxy N-N-N trimethylmethanaminium: 96%
  %, Dissociation of Benzoic acid: 97%
[9]
  Concentration in %: 1 carboxy N-N-N trimethylmethanaminium, %: 69%
  Concentration in %: Benzoic acid, %: 36%
